This passage reports Ki results from patent publication US12559529B2, “NPY2 receptor agonists” (Boehringer Ingelheim International GmbH, priority 2019, dated 2026).

*1 amine or outer side, *2 acyl side, *3 side chain or, on linkers, in order; H or OH if unused. Where a SMILES comes first, the peptide text is derived from it. Side-chain parts run from the residue outwards. The star is where a group is joined. C18 diacid = O=C(O)CCCCCCCCCCCCCCCCC(=O)*; γGlu = O=C(O)[C@H](CCC(=O)[*:2])N[*:1]; Isovaleryl = CC(C)CC(=O)*; AEEA = NCCOCCOCC(=O)O

As usually defined, the Ki is a dissociation constant, usually derived from enzyme kinetics or from competition with a known ligand.

For the test, the target named is T1, Human Neuropeptide Y2 Receptor (Homo sapiens, UniProt P49146).
T1 construct: purchased CHEMICON HTS066M
T1 sequence (P49146 1-381): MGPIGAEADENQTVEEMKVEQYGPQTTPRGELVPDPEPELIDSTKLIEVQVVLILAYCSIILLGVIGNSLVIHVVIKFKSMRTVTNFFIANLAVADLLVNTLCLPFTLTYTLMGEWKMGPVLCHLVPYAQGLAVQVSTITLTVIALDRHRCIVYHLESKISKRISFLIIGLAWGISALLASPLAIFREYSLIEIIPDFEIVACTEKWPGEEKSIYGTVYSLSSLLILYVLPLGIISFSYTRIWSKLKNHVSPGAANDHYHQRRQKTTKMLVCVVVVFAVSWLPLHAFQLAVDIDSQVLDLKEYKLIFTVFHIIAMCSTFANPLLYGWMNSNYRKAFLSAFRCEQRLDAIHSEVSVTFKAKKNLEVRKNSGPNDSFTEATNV
Kind of test: Radioligand binding competition assay (RLB). The settings on record: Table 3; human 125I-PYY (1-36) 0.02 nM, Y2 receptor membranes; read-out: Ki. In outline:
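Membranes (0.5 μg/well) and test peptides, serially diluted from 1 mM DMSO stocks, were incubated 2 hours at room temperature in HEPES buffer pH 7.4 with Mg, Ca and ovalbumin.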
Consider `CC(C)CC(=O)N[C@@H](C)C(=O)N1CCC[C@H]1C(=O)N[C@@H](CCC(=O)O)C(=O)N[C@@H](CCCCNC(=O)COCCOCCNC(=O)COCCOCCNC(=O)CC[C@H](NC(=O)CCCCCCCCCCCCCCCCC(=O)O)C(=O)O)C(=O)N1CCC[C@H]1C(=O)N[C@@H](CCC(=O)O)C(=O)N[C@@H](C)C(=O)N1CCC[C@H]1C(=O)N[C@@H](C)C(=O)N[C@@H](CO)C(=O)N1CCC[C@H]1C(=O)N[C@@H](CCC(=O)O)C(=O)N[C@@H](CCC(=O)O)C(=O)N[C@@H](CC(C)C)C(=O)N[C@@H](CCC(N)=O)C(=O)N[C@@H](CCCNC(=N)N)C(=O)N[C@@H](Cc1ccc(O)cc1)C(=O)N[C@@H](Cc1ccc(O)cc1)C(=O)N[C@H](C(=O)N[C@@H](CO)C(=O)N[C@@H](CC(C)C)C(=O)N[C@@H](CCCNC(=N)N)C(=O)N[C@@H](Cc1c[nH]cn1)C(=O)N[C@@H](Cc1ccc(O)cc1)C(=O)N[C@@H](Cc1ccc(O)cc1)C(=O)N[C@@H](CC(N)=O)C(=O)N[C@@H](Cc1c[nH]c2ccccc12)C(=O)N[C@@H](CC(C)C)C(=O)N[C@H](C(=O)N[C@@H](CCCNC(=N)N)C(=O)N[C@@H](CCC(N)=O)C(=O)N[C@@H](CCCNC(=N)N)C(=O)N[C@@H](Cc1ccc(O)cc1)C(N)=O)[C@@H](C)O)C(C)C` [Compound 43, N{alpha-4}-(3-methylbutanoyl)-N{epsilon-7}-[2-(2-{2-[2-(2-{2-[(4S)-4-carboxy-4-(17-carboxyheptadecanamido)butanamido]ethoxy}ethoxy)acetamido]ethoxy}ethoxy)acetamido]-[4A,7K,9E,10A,11P,18Q,22V,28Y,30W,31L]hPYY (4-36)] (Isovaleryl-APEK([AEEA-AEEA-γGlu-C18 diacid])PEAPASPEELQRYYVSLRHYYNWLTRQRY-NH2), for which the Ki was determined as 0.4 nM.
Consider `CC[C@H](C)[C@H](NC(=O)[C@H](Cc1c[nH]c2ccccc12)NC(=O)[C@H](CC(N)=O)NC(=O)[C@H](Cc1ccc(O)cc1)NC(=O)[C@H](Cc1ccc(O)cc1)NC(=O)[C@H](Cc1c[nH]cn1)NC(=O)[C@H](CCCNC(=N)N)NC(=O)[C@H](CC(C)C)NC(=O)[C@H](CO)NC(=O)[C@@H](NC(=O)[C@H](Cc1ccc(O)cc1)NC(=O)[C@H](Cc1ccc(O)cc1)NC(=O)[C@H](CCCNC(=N)N)NC(=O)[C@H](CCC(N)=O)NC(=O)[C@H](CC(C)C)NC(=O)[C@H](CCC(=O)O)NC(=O)[C@H](CCC(=O)O)NC(=O)[C@@H]1CCCN1C(=O)[C@H](CO)NC(=O)[C@H](C)NC(=O)[C@H](CCC(=O)O)NC(=O)[C@H](CCC(=O)O)NC(=O)[C@H](CCC(=O)O)NC(=O)[C@@H]1CCCN1C(=O)[C@H](CCCCNC(=O)COCCOCCNC(=O)COCCOCCNC(=O)CC[C@H](NC(=O)CCCCCCCCCCCCCCCCC(=O)O)C(=O)O)NC(=O)[C@H](CCC(=O)O)NC(=O)[C@@H]1CCCN1C(=O)[C@H](C)NC(=O)CC(C)C)C(C)C)C(=O)N[C@H](C(=O)N[C@@H](CCCNC(=N)N)C(=O)N[C@@H](CCC(N)=O)C(=O)N[C@@H](CCCNC(=N)N)C(=O)N[C@@H](Cc1ccc(O)cc1)C(N)=O)[C@@H](C)O` [Compound 44, N{alpha-4}-(3-methylbutanoyl)-N{epsilon-7}-[2-(2-{2-[2-(2-{2-[(4S)-4-carboxy-4-(17-carboxyheptadecanamido)butanamido]ethoxy}ethoxy)acetamido]ethoxy}ethoxy)acetamido]-[4A,7K,9E,11E,18Q,22V,28Y,30W,31I]hPYY (4-36)], for which the Ki is 4.44 nM.
For the compound `CC(C)CC(=O)N[C@@H](C)C(=O)N1CCC[C@H]1C(=O)N[C@@H](CCC(=O)O)C(=O)N[C@@H](CCCCNC(=O)COCCOCCNC(=O)COCCOCCNC(=O)CC[C@H](NC(=O)CCCCCCCCCCCCCCCCC(=O)O)C(=O)O)C(=O)N1CCC[C@H]1C(=O)N[C@@H](CCC(=O)O)C(=O)N[C@@H](CCC(=O)O)C(=O)N[C@@H](CCC(=O)O)C(=O)N[C@@H](C)C(=O)N[C@@H](CO)C(=O)N1CCC[C@H]1C(=O)N[C@@H](CCC(=O)O)C(=O)N[C@@H](CO)C(=O)N[C@@H](CC(C)C)C(=O)N[C@@H](CCC(N)=O)C(=O)N[C@@H](CCCNC(=N)N)C(=O)N[C@@H](Cc1ccc(O)cc1)C(=O)N[C@@H](Cc1ccc(O)cc1)C(=O)N[C@H](C(=O)N[C@@H](CO)C(=O)N[C@@H](CC(C)C)C(=O)N[C@@H](CCCNC(=N)N)C(=O)N[C@@H](Cc1c[nH]cn1)C(=O)N[C@@H](Cc1ccc(O)cc1)C(=O)N[C@@H](Cc1ccc(O)cc1)C(=O)N[C@@H](CC(N)=O)C(=O)N[C@@H](Cc1c[nH]c2ccccc12)C(=O)N[C@@H](CC(C)C)C(=O)N[C@H](C(=O)N[C@@H](CCCNC(=N)N)C(=O)N[C@@H](CCC(N)=O)C(=O)N[C@@H](CCCNC(=N)N)C(=O)N[C@@H](Cc1ccc(O)cc1)C(N)=O)[C@@H](C)O)C(C)C` [Compound 45, N{alpha-4}-(3-methylbutanoyl)-N{epsilon-7}-[2-(2-{2-[2-(2-{2-[(4S)-4-carboxy-4-(17-carboxyheptadecanamido)butanamido]ethoxy}ethoxy)acetamido]ethoxy}ethoxy)acetamido]-[4A,7K,9E,11E,16S,18Q,22V,28Y,30W,31L]hPYY (4-36)] (Isovaleryl-APEK([AEEA-AEEA-γGlu-C18 diacid])PEEEASPESLQRYYVSLRHYYNWLTRQRY-NH2), the Ki came to 3.97 nM.
The same measure for `CC(C)CC(=O)N[C@@H](C)C(=O)N1CCC[C@H]1C(=O)N[C@@H](CCC(=O)O)C(=O)N[C@@H](CCCCNC(=O)COCCOCCNC(=O)COCCOCCNC(=O)CC[C@H](NC(=O)CCCCCCCCCCCCCCCCC(=O)O)C(=O)O)C(=O)N1CCC[C@H]1C(=O)N1CCC[C@H]1C(=O)N[C@@H](C)C(=O)N[C@@H](CC(=O)O)C(=O)N[C@@H](C)C(=O)N[C@@H](CO)C(=O)N1CCC[C@H]1C(=O)N[C@@H](CCC(=O)O)C(=O)N[C@@H](CCC(=O)O)C(=O)N[C@@H](CC(C)C)C(=O)N[C@@H](CCC(N)=O)C(=O)N[C@@H](CCCNC(=N)N)C(=O)N[C@@H](Cc1ccc(O)cc1)C(=O)N[C@@H](Cc1ccc(O)cc1)C(=O)N[C@H](C(=O)N[C@@H](CO)C(=O)N[C@@H](CC(C)C)C(=O)N[C@@H](CCCNC(=N)N)C(=O)N[C@@H](Cc1c[nH]cn1)C(=O)N[C@@H](Cc1ccc(O)cc1)C(=O)N[C@@H](Cc1ccc(O)cc1)C(=O)N[C@@H](CC(N)=O)C(=O)N[C@@H](Cc1c[nH]c2ccccc12)C(=O)N[C@@H](CC(C)C)C(=O)N[C@H](C(=O)N[C@@H](CCCNC(=N)N)C(=O)N[C@@H](CCC(N)=O)C(=O)N[C@@H](CCCNC(=N)N)C(=O)N[C@@H](Cc1ccc(O)cc1)C(N)=O)[C@@H](C)O)C(C)C` [Compound 47, N{alpha-4}-(3-methylbutanoyl)-N{epsilon-7}-[2-(2-{2-[2-(2-{2-[(4S)-4-carboxy-4-(17-carboxyheptadecanamido)butanamido]ethoxy}ethoxy)acetamido]ethoxy}ethoxy)acetamido]-[4A,7K,9P,10A,18Q,22V,28Y,30W,31L]hPYY (4-36)]: 0.42 nM; for `CC(C)CC(=O)N[C@@H](C)C(=O)N1CCC[C@H]1C(=O)N[C@@H](CCC(=O)O)C(=O)N[C@@H](CCCCNC(=O)COCCOCCNC(=O)COCCOCCNC(=O)CC[C@H](NC(=O)CCCCCCCCCCCCCCCCC(=O)O)C(=O)O)C(=O)N1CCC[C@H]1C(=O)N[C@@H](CCC(=O)O)C(=O)N[C@@H](CCC(=O)O)C(=O)N[C@@H](CC(=O)O)C(=O)N[C@H](C(=O)N[C@@H](CCC(=O)O)C(=O)N1CCC[C@H]1C(=O)N[C@@H](CCC(=O)O)C(=O)N[C@@H](CCC(=O)O)C(=O)N[C@@H](CC(C)C)C(=O)N[C@@H](CCC(N)=O)C(=O)N[C@@H](CCCNC(=N)N)C(=O)N[C@@H](Cc1ccc(O)cc1)C(=O)N[C@@H](Cc1ccc(O)cc1)C(=O)N[C@H](C(=O)N[C@@H](CO)C(=O)N[C@@H](CC(C)C)C(=O)N[C@@H](CCCNC(=N)N)C(=O)N[C@@H](Cc1c[nH]cn1)C(=O)N[C@@H](Cc1ccc(O)cc1)C(=O)N[C@@H](Cc1ccc(O)cc1)C(=O)N[C@@H](CC(N)=O)C(=O)N[C@@H](Cc1c[nH]c2ccccc12)C(=O)N[C@@H](CC(C)C)C(=O)N[C@H](C(=O)N[C@@H](CCCNC(=N)N)C(=O)N[C@@H](CCC(N)=O)C(=O)N[C@@H](CCCNC(=N)N)C(=O)N[C@@H](Cc1ccc(O)cc1)C(N)=O)[C@@H](C)O)C(C)C)[C@@H](C)O` [Compound 48, N{alpha-4}-(3-methylbutanoyl)-N{epsilon-7}-[2-(2-{2-[2-(2-{2-[(4S)-4-carboxy-4-(17-carboxyheptadecanamido)butanamido]ethoxy}ethoxy)acetamido]ethoxy}ethoxy)acetamido]-[4A,7K,9E,12T,13E,18Q,22V,28Y,30W,31L]hPYY (4-36)]: 38.9 nM.
